# Experimental data: patent US8853424B2 (Japan Science and Technology Agency, priority 2008, dated 2014)
# Like-named read-outs stand apart in the source and are kept apart here.
# Columns and labels:
# [1] = tested on: Truncated N-terminal huntington 150 Q-EGFP-Neuron 2a cells; test: Measurement of x-Fold (polyglutamine aggregation inhibitory activity); assay type: cell-based
# Procedure: In the present invention, the polyglutamine aggregation inhibitory activity (x-Fold) can be measured, for example, by the method described in the Example.
# The number of the aggregated cells, and the total number of cells were counted by Array Scan V T1 (manufactured by Cellomics, Pittuburg, USA), and the ratio of the aggregated cells to the total number of cells was determined (x-Fold). […]
# [2] = tested on: SOC (store operated calcium channel); test: Measurement of SOC IC50 (thapsigargin store depletion, calcium re-addition, CHO cells); assay type: cell-based; settings: read-out: SOC IC50
# Procedure: The SOC (store operated calcium channel)-suppressive action can be measured by the method described in the Example and using, for example, FDSS 3000.
# CHO cell culture medium was replaced with a BSS solution which is an extracellular fluidfree of calcium, the compound of the present invention was added 1 min later, and 1 μM thapsigargin was allowed to act thereon 2 min later to deplete intracellular calcium store. […]
# [3] = tested on: transglutaminase (TGase); test: Measurement of TG (TGase inhibitory activity, monodansyl cadaverine / N,N-dimethylcasein fluorescence, FDSS 3000); assay type: biochemical
# In short: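 Compound (1 μL of 10 mM stock) added to 0.1 mL reaction: 100 mM HEPES-NaOH pH 7.5, 1 mM CaCl2, 20 μM monodansyl cadaverine, 0.05 mg/mL N,N-dimethylcasein, 5 μg/mL TGase. Rate of fluorescence change at 340 nm measured; DMSO control set to 100; TG50 is the concentration halving activity.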
# [4] = polyglutamine aggregation inhibitory activity, Table 1
# [5] = ratio of aggregated cells to total number of cells, compound 20 μM, 20 hr, almost 1 without compound, smaller = stronger inhibition
# [6] = Cricetulus griseus, CHO, CHO cells, 1 μM thapsigargin, 2 mM calcium chloride
# [7] = Cricetulus griseus, CHO, Table 1
# [8] = TGase activity with compound (10 mM, 1 μL in 0.1 ml enzyme reaction solution), DMSO control taken as 100
# [9] = TGase inhibitory activity value, Table 1
# [10] = polyglutamine aggregation, Truncated N-terminal huntington 150 Q-EGFP-Neuron 2a cells
# [11] = CHO cells, 1 μM thapsigargin, 2 mM calcium chloride
# [12] = TGase inhibitory activity measurement, unit not given
Molecule,"x-Fold [1, 4]","x-Fold [1, 5]","IC50 [2, 6] [nM]","IC50 [2, 7] [nM]","TGase activity remaining (% of DMSO control = 100) [3, 8]","TGase activity remaining (% of DMSO control = 100) [3, 9]","x-Fold [1, 10]","IC50 [2, 11] [nM]","TGase activity remaining (% of DMSO control = 100) [3, 12]","x-Fold ([1]; polyglutamine aggregation inhibitory activity, Table 1, listed as 4143)","TGase activity remaining (% of DMSO control = 100) ([3]; TGase inhibitory activity value, Table 1, listed as 4143)","x-Fold ([1]; polyglutamine aggregation inhibitory activity, Table 1, listed as 1024)","TGase activity remaining (% of DMSO control = 100) ([3]; TGase inhibitory activity value, Table 1, listed as 1024)"
"CNCCOB(c1ccccc1)c1ccc(Oc2ccc(B(OCCNC)c3ccc(CO)cc3)cc2)cc1 [Example 391, (4-(phenyl-N-methylaminoethoxyboryl)phenyl)(4′-(hydroxymethylphenyl-N-methylaminoethoxyboryl)phenyl)ether]",0.32,0.32,500,500,15,15,–,–,–,–,–,–,–
"c1ccc(B(OCC2CCCN2)c2ccc(Oc3ccc(B(OCC4CCCN4)c4ccccc4)cc3)cc2)cc1 (centres unmarked) [Example 438, bis(4,4′-(phenyl-2-pyrrolidinemethoxyboryl)phenyl)ether]",–,0.67,–,–,29,–,0.67,2000,29,–,–,–,–
"CNCCOB(c1ccccc1)c1ccc(Oc2ccc(B(OCCNC)c3ccccc3)cc2)cc1 [Example 386, bis(4,4′-(phenyl-N-methylaminoethoxyboryl)phenyl)ether]",0.98,0.98,–,–,10,10,–,500,–,–,–,–,–
"NCCOB(c1ccc(Cl)c(F)c1)c1ccc(Cl)c(F)c1 [Example 234, di(4-chloro-3-fluoro-phenyl) 2-aminoethylborinate]",–,1.07,500,500,98,–,–,–,–,1.07,98,–,–
"Cc1ccc(B(OC(=O)C(N)CC(N)=O)c2ccc(C)c(Cl)c2)cc1Cl (centres unmarked) [Example 282, di(3-chloro-4-methylphenyl)(asparaginate-O,N)borane]",–,0.95,300,–,112,–,–,–,–,–,–,–,–
"bis(4,4′-(phenylaminoethoxyboryl)phenyl)ether [Example 5]",0.60,0.60,–,–,−4,−4,–,150,–,–,–,–,–
"c1ccc(B(OCc2ccccn2)c2ccc(COc3ccc(B(OCc4ccccn4)c4ccccc4)cc3)cc2)cc1 [Example 429, (4-phenyl-2-pyridylmethoxyborylphenyl)(4′-phenyl-2-pyridylmethoxyborylbenzyl)ether]",–,0.81,–,–,102,–,0.81,700,102,–,–,–,–
"c1ccc(CNCCOB(c2ccccc2)c2ccc(COCc3ccc(B(OCCNCc4ccccc4)c4ccccc4)cc3)cc2)cc1 [Example 456, bis(4,4′-(phenyl-benzylaminoethoxyboryl)benzyl)ether]",–,0.87,–,–,29,–,0.87,500,29,–,–,–,–
"NCCOB(c1ccc(COCc2ccc(B(OCCN)c3ccc(C(F)(F)F)cc3)cc2)cc1)c1ccc(C(F)(F)F)cc1 [Example 426, bis(4,4′-(p-trifluoromethylphenyl-aminoethoxyboryl)benzyl)ether]",–,0.93,–,–,19,–,0.93,1200,19,–,–,–,–
"Cc1ccc(B(OCC2CCCCN2)c2ccc(COCc3ccc(B(OCC4CCCCN4)c4ccc(C)c(Cl)c4)cc3)cc2)cc1Cl (centres unmarked) [Example 423, bis(4,4′-(3-chloro-4-methylphenyl-2-piperidylmethoxyboryl)benzyl)ether]",–,0.76,–,–,27,–,0.76,1200,27,–,–,–,–
"NC(COB(c1ccccc1)c1ccc(Oc2ccc(B(OCC(N)Cc3ccccc3)c3ccccc3)cc2)cc1)Cc1ccccc1 (centres unmarked) [Example 480, bis(4,4′-(phenyl-2-benzyl-2-amino-ethoxyboryl)phenyl)ether]",–,0.66,–,–,59,–,0.66,1500,59,–,–,–,–
"diphenyl(tyrosinate-O,N)borane [Example 264]",1.00,1.00,–,–,109,109,–,5000,–,–,–,–,–
"NCCC(N)C(=O)OB(c1ccccc1)c1cccc(COCc2cccc(B(OC(=O)C(N)CCN)c3ccccc3)c2)c1 (centres unmarked) [Example 472, bis(3,3′-(phenyl-2,4-diaminobutyric acid boryl)benzyl)ether]",–,0.95,–,–,47,–,0.95,1000,47,–,–,–,–
"c1ccc(NCCOB(c2ccccc2)c2ccc(COCc3ccc(B(OCCNc4ccccc4)c4ccccc4)cc3)cc2)cc1 [Example 455, bis(4,4′-(phenyl-phenylaminoethoxyboryl)benzyl)ether]",–,1.04,–,–,23,–,1.04,500,23,–,–,–,–
"c1ccc(COB(c2ccc(Oc3ccc(B(OCc4ccccn4)c4cccc5ccccc45)cc3)cc2)c2cccc3ccccc23)nc1 [Example 443, bis(4,4′-(naphthyl-2-pyridylmethoxyboryl)phenyl)ether]",–,0.63,–,–,84,–,0.63,3000,84,–,–,–,–
"Cc1ccc(B(OCCNCc2ccccc2)c2ccc(C)c(Cl)c2)cc1Cl [Example 211, di(3-chloro-4-methylphenyl)benzylaminoethyl borinate]",0.99,0.99,1000,1000,86,86,–,–,–,–,–,–,–
"CN1CCCCC1COB(c1ccccc1)c1ccc(COCc2ccc(B(OCC3CCCCN3C)c3ccccc3)cc2)cc1 (centres unmarked) [Example 457, bis(4,4′-(phenyl-N-methylpiperidine-methoxyboryl)benzyl)ether]",–,1.10,–,–,30,–,1.10,600,30,–,–,–,–
"Cc1ccc(B(OCCN)c2ccc(COCc3ccc(B(OCCN)c4ccc(C)c(Cl)c4)cc3)cc2)cc1Cl [Example 420, bis(4,4′-(3-chloro-4-methylphenyl-aminoethoxyboryl)benzyl)ether]",–,0.81,–,–,−3,–,0.81,1200,−3,–,–,–,–
"OB(c1ccccc1)c1ccc(B(O)c2ccccc2)cc1 [Example 252, 1,4-bis(phenylhydroxyboryl)benzene]",0.95,0.95,500,500,93,93,–,–,–,–,–,–,–
"OB(c1ccccc1)c1cccc(B(O)c2ccccc2)c1 [Example 119, 1,3-bis(phenylhydroxyboryl)benzene]",–,0.84,> 20000,–,101,–,–,–,–,–,–,–,–
"NC(=O)CCC(N)C(=O)OB(c1ccccc1)c1ccc(Oc2ccc(B(OC(=O)C(N)CCC(N)=O)c3ccccc3)cc2)cc1 (centres unmarked) [Example 273, bis(4,4′-(phenyl-glutamineboryl)phenyl)ether]",–,0.56,–,–,83,–,–,250,–,–,–,0.56,83
"Cc1ccc(B(SCCN(C)C)c2ccc(C)c(Cl)c2)cc1Cl [Example 295, di(3-chloro-4-methylphenyl)dimethylaminoethylthioborane]",0.92,0.92,800,800,107,107,–,–,–,–,–,–,–
"NCCSB(c1ccccc1)c1ccc(COCc2ccc(B(SCCN)c3ccccc3)cc2)cc1 [Example 451, bis(4,4′-(phenyl-aminoethylthioboryl)benzyl)ether]",–,0.91,–,–,6,–,0.91,1400,6,–,–,–,–
"OCCCCB(O)c1ccccc1 [Example 114, 4-hydroxybutylphenylborinic acid]",0.99,0.99,2000,2000,120,120,–,–,–,–,–,–,–
